Results reported in patent publication US20110212176A1, “CICLOPIROX AND CYTARABINE FOR THE TREATMENT OF LEUKEMIC DISORDERS” (priority 2008, published 2011).
“Also recorded” adds a separate entry of the source.

What was measured:
[1] = test system: survivin, Cyclin D1, YY1 and FTII-D; assay: Immunoblotting of protein expression after CPX treatment; assay type: cell-based; settings: prior to the onset of cell death
Experimental: (§1) FIG. 5: Cell cycle arrest, survivin decrease and p53 increase precede CPX induced cell death. A) HeLa, PPC-1 and MDAY-D2 cells were treated with 5 μM CPX or buffer control. Eighteen hours after incubation, cell cycle was analyzed by PI staining and Flow cytometry. B) NB4 and OCI-M2 cell lines were incubated with CPX (5 μM) for 48 hours. After incubation cells were harvested and nuclear proteins were isolated. Levels of p53 and the nuclear protein glucocorticoid receptor (GR) were measured by immunoblotting. C) Solid tumor (OVCAR3, HT-29, HepG2, DU145, HeLa) and leukemia (OCI-M2, OCI-AML2, NB4, HL-6) cell lines were treated with CPX (2.5 μM) or buffer control for 48 hours. After incubation, total protein was isolated. Levels of survivin and GAPDH were measured by immunoblotting.
Total cell lysates were prepared from cells. […] Protein concentrations were measured by the Bradford assay (Anal Biochem. 1996; 236:221-228). […]
Membranes were probed with polyclonal rabbit anti-human survivin (1 μg/mL) (NOVUS), monoclonal mouse anti-human p53 (0.5 μg/mL), polyclonal rabbit anti-human GR (0.5 μg/mL) both from (Santa Cruz Biotechnologies, CA), or with mouse anti-human GADPH (Trevigen, Gaithersburg, Md.). […] Detection was performed by the enhanced chemical luminescence method (Pierce, Rockford, Ill.).

[2] = test system: OCI-AML2, K562 human leukemia cells and MDAY-D2 murine leukemia cells; assay type: in vivo; settings: CPX 25 mg/kg daily by oral gavage; all 3 mouse models
Experimental: MDAY-D2 (MDAY) murine leukemia cells (5×10^5) were injected intra-peritoneal into NOD/SCID mice (Ontario Cancer Institute, Toronto, ON), OCI-AML2 and K562 cells (2×10^6) were injected subcutaneously into both flanks of sub-lethally irradiated (3.5 Gy) NOD/SCID mice. Mice were then treated daily by oral gavages with CPX (25 mg/kg) in PBS or vehicle control. Tumour volume (tumour length×width^2×0.5236) (Mol Cancer Ther. 2004; 3:1239-1248) was measured weekly using calipers. Eight (MDAY-D2), 11 (OCI-AML2) or 30 (K562) days after injection of cells, mice were sacrificed, and the volume and weight of the tumours was measured. All animal studies were carried out according to the regulations of the Canadian Council on Animal Care and with the approval of the local ethics review board.
Given the effects in leukemia cells lines, the effects of oral CPX was evaluated in 3 mouse models of leukemia. Sublethally irradiated NOD-SCID mice were injected subcutaneously with OCI-AML2 or K562 human leukemia cells or intraperitoneally with MDAY-D2 murine leukemia cells. […].

[3] = test system: survivin promoter; assay: Survivin promoter luciferase reporter screen in HeLa cells; assay type: cell-based, human; settings: 5 μM, 24 hours
Excerpt: The full-length survivin promoter (−1059 upstream of the initiating ATG) (NIEHS-SNPs, Environmental Genome Project, NIEHS ES15478, Department of Genome Sciences, Seattle, Wash.) was isolated from HeLa genomic DNA using the forward primer 5′-[…]-3′ (SEQ ID NO:1) and the reverse primer 5′-[…]-3′ (SEQ ID NO:2).
The promoter was sub-cloned into the GL4.20 firefly luciferase reporter vector (Promega Corporation, Madison, Wis.). Clones were sequence-verified for orientation and integrity using a CEQ 8000 Genetic Analysis System (Beckman, Mississauga, ON, Canada). […]
(A) HeLa cells stably overexpressing the survivin promoter driving luciferase (15000 cells/well) were plated in 96-well plates. […] After incubation, survivin promoter activity was assessed by the luciferase assay described below. […]
Luciferase activity was measured according to the manufacturer's instructions and as previously described (Promega, Madison, Wis.) (Mao Blood). […] After 10-minutes incubation, an equal volume of Bright-Glo Luciferase substrate (Promega) was added, and the luminescence signal was detected with a 96-well Luminoskan luminescence plate reader (Thermo Fisher Scientific, Waltham, Mass.) with 5-seconds integration time. […]

[4] = test system: HeLa, PPC-1 and MDAY-D2 cells; assay: Cell cycle analysis by PI staining and flow cytometry; assay type: cell-based; settings: 5 μM CPX; eighteen hours; prior to the onset of cell death
Experimental: as §1
Cell-cycle analysis was performed as previously described (Blood 112(3):760). Briefly, cells were harvested, washed with cold PBS, re-suspended in 70% cold ethanol, and incubated overnight at −20° C. Cells were then treated with 100 ng/mL of DNase-free RNase (Invitrogen, Carlsbad, Calif.) at 37° C. for 30 minutes, washed with cold PBS, and re-suspended in PBS with 50 μg/mL of PI (Sigma). DNA content was analyzed by flow cytometry (FACSCalibur; BD Biosciences, San Jose, Calif.).

[5] = test system: leukemia cell lines; assay: MTS cell viability assay in leukemia/lymphoma cell lines; assay type: cell-based; settings: increasing concentrations, 72 hours
Experimental: Leukemia (HL-60, RSV411, k562, Jurkat, U937), LYMPHOMA (MDAY-D2), solid tumour cell lines (PPC-1, HeLa, OVCAR-3, DU-145, HT-29) and GMO5757 human lung fibroblasts were cultured in RPMI 1640 medium. HepG2 hepatoma cells and MRC5 human lung fibroblasts were grown in Dulbecco modified Eagle medium. OCI-M2, OCI-AML2 and NB4 leukemia cell lines and OPM2, KMS11, LP1, UTMC2, KSM18 and OCIMy5 myeloma cell lines were maintained in Iscove Modified Dulbecco Medium. LF1 human lung fibroblasts were maintained in HAM medium. All media were supplemented with 10% fetal calf serum, 100 μg/mL of penicillin, and 100 units/mL of streptomycin (all from Hyclone, Logan, Utah). The cells were incubated at 37° C. in a humidified air atmosphere supplemented with 5% CO2.
The CellTiter96 aqueous nonradioactive (MTS) assay was used to measure cell viability according to the manufacturer's instructions (Promega). Propidium iodide (PI) staining was used according to manufacturer's instructions (Biovision, Mountain view, Calif.).
From this chemical screen, the antimicrobial CPX was identified. CPX is currently used for the topical treatment of cutaneous fungal infections. As an anti-fungal agent, the mechanism of action of CPX is not well understood, but appears related to binding intracellular iron and inhibiting iron containing enzymes. […] 72 hours after incubation, cell viability was measured by the MTS assay. […]

`Cc1cc(C2CCCCC2)n(O)c(=O)c1` [CPX, 6-Cyclohexyl-1-hydroxy-4-methyl-2(1H)-pyridone] was tested. Which “effect on protein expression” value [1] did it give?
The value was “down-regulated the expression of survivin, Cyclin D1, and the transcription factors YY1 and FTII-D”.

And the “decrease in tumor volume compared to control” value [2]?
Its value is “up to 65%”.

What about the “decrease in tumor weight compared to control” value [2] of the same compound?
The value was “up to 65%”.

What about the “inhibition of survivin transactivation (luciferase expression)” value [3] of the same compound?
Its value is “inhibitor of survivin transactivation”.

What about the cell cycle effect [4] of the same compound?
The cell cycle effect was “arrested cells in the G1/S phase of the cell cycle”.

And the “effect on cell viability” value [5]?
Its value is “decreased cell viability in all leukemia cell lines tested; also recorded: decreased cell viability in all leukemia and lymphoma cell lines”.
